# Measured values: paper PMC3220680, “Microsecond Molecular Dynamics Simulations of Intrinsically Disordered Proteins Involved in the Oxidative Stress Response” (PLoS ONE, 2011)
# Read-outs that look alike come from different tables or passages of the source.
# B1: 16-mer ProTα peptide (mouse), Ala-39 to Asp-54 (peptide)
# peptide: AQNEENGEQEADNEVD
# notes: Prothymosin alpha (ProTα), mouse, residues 39-54; also called Prothymosin alpha peptide; source: synthetic peptide; bought: GenScript
# Columns and labels:
# Kelch domain of Keap1 = details: ITC; ref [79]; cited from earlier work
# Keap1 = details: cited from earlier work; for competition with full-length Nrf2 for binding to Keap1: compared with 10-mer peptide (LDEETGEFLP), ref [79]
# [1] = system: Kelch domain of mouse Keap1 (residues 324–612); experiment: ITC binding of mouse peptides to Kelch domain of Keap1
# Protocol: The Kelch domain (residues 324–612) of mouse Keap1 was expressed in Escherichia coli BL21 (DE3) grown in minimal M9 medium. The N-terminally His-tagged protein was purified by affinity chromatography using Ni Sepharose™ 6 Fast Flow beads (Amersham Biosciences). The tag was then cleaved by incubation with His-tagged tobacco etch virus (TEV) protease overnight at 25°C. The protein product was purified by passing the mixture through Ni Sepharose™ 6 Fast Flow beads (Amersham Biosciences).
# ITC experiments were performed on a VP-ITC system (MicroCal) at 25°C. The Kelch domain was dialyzed against 50 mM phosphate buffer at pH 7, containing 100 mM NaCl and 1 mM DTT. Mouse ProTα (Ala-39 to Asp-54) and Neh2 (Leu-76 to Leu-84) peptides (GenScript) were also dissolved in the same buffer. All samples were filtered and degassed before the ITC experiments. […] Heat changes after saturation were used to account for the heat of dilution. The binding stoichiometries (n), enthalpy changes (ΔH), binding constants (Ka), Gibbs free energy changes (ΔG) and entropy changes (ΔS) were calculated using the titration data.
# Supplementary file pone.0027371.s006.tif: Figure S4 Isothermal titration calorimetry (ITC) measurements. […] (Upper) The raw data of two ITC experiments each performed at 25°C. (Lower) The integrated heat changes, corrected for the heat of dilution, and the fitted curve assuming single-site binding. (TIF) Click here for additional data file.
# [2] = system: Nrf2-targeted cytoprotective genes; details: ref [49], [50]; cited from earlier work
# From the text: The Keap1-binding motif of ProTα (-NEENGE-) shares a similar sequence with that of the Neh2 ...
# [3] = biological target: Keap1 Kelch (Homo sapiens) (UniProt Q14145); experiment: ITC; details: cited from earlier work
# [4] = biological target: Keap1 Kelch (Mus musculus) (UniProt Q9Z2X8); details: cited from earlier work
# [5] = biological target: Keap1 Kelch (Mus musculus) (UniProt Q9Z2X8); experiment: ITC; details: cited from earlier work
# [6] = biological target: T1, Kelch domain (residues 324–612) of mouse Keap1 (mouse, UniProt Q9Z2X8 324-612); experiment: ITC; VP-ITC (MicroCal), 25°C; 5 µL aliquots of 0.5 mM peptide titrated into 1.4 mL of 0.05 mM Kelch in the cell; 50 mM phosphate pH 7, 100 mM NaCl, 1 mM DTT; single-site fit; details: both partners purified
# T1 construct: Kelch domain of Kelch-like ECH-associated protein 1 (Keap1), mouse, residues 324-612; His tag cleaved with TEV protease; also called Kelch-like ECH-associated protein 1; source: Escherichia coli BL21 (DE3) in minimal M9 medium, purified (Ni Sepharose, TEV cleavage, second Ni Sepharose pass); not shown: His tag, N-terminal, cleaved
# [7] = ITC, T = 298 K, pH 7, 50 mM phosphate, 100 mM NaCl, 1 mM DTT
# T1 sequence (Q9Z2X8 324-612): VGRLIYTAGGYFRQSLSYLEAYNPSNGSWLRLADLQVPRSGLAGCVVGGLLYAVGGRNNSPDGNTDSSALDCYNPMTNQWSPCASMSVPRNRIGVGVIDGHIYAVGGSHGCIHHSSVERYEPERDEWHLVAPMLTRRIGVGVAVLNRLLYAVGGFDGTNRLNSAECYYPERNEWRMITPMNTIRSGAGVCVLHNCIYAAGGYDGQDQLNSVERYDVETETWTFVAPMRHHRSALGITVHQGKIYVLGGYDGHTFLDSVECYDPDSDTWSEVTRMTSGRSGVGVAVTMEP
# Chain of Keap1 Kelch (Mus musculus) (Q9Z2X8 309-624): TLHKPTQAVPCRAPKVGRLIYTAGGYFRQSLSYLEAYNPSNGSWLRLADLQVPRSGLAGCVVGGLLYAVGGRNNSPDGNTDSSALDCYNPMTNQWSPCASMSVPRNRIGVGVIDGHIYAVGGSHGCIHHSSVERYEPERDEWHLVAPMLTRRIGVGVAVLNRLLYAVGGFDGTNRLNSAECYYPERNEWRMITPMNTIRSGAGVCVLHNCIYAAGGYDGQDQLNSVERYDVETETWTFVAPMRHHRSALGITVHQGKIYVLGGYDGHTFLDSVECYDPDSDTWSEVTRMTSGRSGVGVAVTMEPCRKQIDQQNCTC
# Chain of Keap1 Kelch (Homo sapiens) (Q14145 321-609): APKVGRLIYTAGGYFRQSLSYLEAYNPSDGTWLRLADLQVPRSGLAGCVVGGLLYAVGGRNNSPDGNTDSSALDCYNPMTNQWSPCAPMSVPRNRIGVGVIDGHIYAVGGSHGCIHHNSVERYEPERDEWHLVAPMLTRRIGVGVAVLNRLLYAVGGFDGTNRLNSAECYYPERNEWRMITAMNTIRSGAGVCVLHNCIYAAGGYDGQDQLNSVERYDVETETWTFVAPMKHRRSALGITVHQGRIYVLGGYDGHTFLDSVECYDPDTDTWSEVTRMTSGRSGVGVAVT
molecule,measurement,setting,value
AFFAQLQLDEETGEFL,Kd,Kelch domain of Keap1,~0.02 µM
same,competition with full-length Nrf2 for binding to Keap1,Keap1,could compete with full-length Nrf2 for binding to Keap1 much better than a 10-mer peptide (LDEETGEFLP)
"AQNEENGEQEADNEVD [16-mer ProTα peptide, Mouse ProTα (Ala-39 to Asp-54) peptide (GenScript)]",relative binding to Keap1,"[1]; 16-mer ProTα vs Neh2 peptide with the same length, own ITC compared with ref [79]",interacts more weakly with Keap1 compared to the Neh2 peptide with the same length
same,Ka (binding constant),"[1]; ITC (VP-ITC), 25°C (T = 298 K), 50 mM phosphate pH 7, 100 mM NaCl, 1 mM DTT, 0.5 mM peptide titrated into 0.05 mM Kelch, single-site fit",2.4 ± 0.1 10^6 M^−1
same,TΔS (entropy change upon binding),[1]; [7],-42.68 kJ/mol
same,ΔG (Gibbs free energy change upon binding),[1]; [7],-36.4 ± 0.084 kJ/mol
LQLDEETGEFLPIQ,competition with full-length Nrf2 for binding to Keap1,Keap1,could compete with full-length Nrf2 for binding to Keap1 much better than a 10-mer peptide (LDEETGEFLP)
"MSDAAVDTSSEITTKDLKEKKEVVEEAENGRDAPANGNAQNEENGEQEADNEVDEEEEEGGEEEEEEEEGDGEEEDGDEDEEAEAPTGKRVAEDDEDDDVDTKKQKTEEDD [Full-length ProTα, Prothymosin alpha, full-length mouse ProTα protein, simulated]",competition with Nrf2 for binding to Keap1,"Keap1; ref [49], [50]",can compete with Nrf2 for binding to Keap1
same,Nrf2-targeted cytoprotective genes,[2],upregulation of Nrf2-targeted cytoprotective genes
Nrf2 16-mer peptide 16-mer ETGE peptide (from UniProt Q16236),Kd,[3],0.02 µM
Nrf2 Neh2 (DLG motif) Neh2 (from UniProt Q60795),Kd,[4],0.5 µM
Nrf2 Neh2 (ETGE motif) Neh2 (from UniProt Q60795),Kd,[5],0.008 µM
B1,Ka,[6],2.4e+06 ± 0.1 M⁻¹
same,dH,[6],-79.08 ± 0.418 kJ/mol
same,stoichiometry N,[6],1.03
